{"source": "patent US6362369B1", "about": "“Phthalic acid diamide derivatives fluorine-containing aniline compounds as starting material, agricultural and horticultural insecticides, and a method for application of the insecticides” (Nihon Nohyaku Co., Ltd., priority 1997, dated 2002)"}
{"tested_on": "diamondback moth (Plutella xylostella)", "assay": "Insecticidal effect on diamondback moth (Test Example 1)", "type": "in vivo", "details": "diamondback moth; judged by the criterion of Test Example 1", "procedure": "(§1) Insecticidal effect on diamondback moth (Plutella xylostella) Adult diamondback moths were released and allowed to oviposit on a Chinese cabbage seedling. […] After air-drying, it was allowed to stand in a room thermostated at 25° C. Six days after the immersion, the hatched insects were counted. The mortality was calculated according to the following equation and the insecticidal effect was judged according to the criterion shown below. The test was carried out with triplicate groups of 10 insects. [table]"}
{"compound": "CCOc1cc(C(F)(C(F)(F)F)C(F)(F)F)ccc1NC(=O)c1cccc(I)c1C(=O)NC(C)(C)C", "note": "[compound 1694]", "Insecticidal effect (Test Example 1), judged from mortality": "A (100)"}
{"compound": "Cc1cc(C(F)(F)C(F)(F)F)ccc1NC(=O)c1cccc([S+]([O-])C(F)(F)F)c1C(=O)NC(C)C", "note": "(stereo not shown) [compound 1804]", "Insecticidal effect (Test Example 1), judged from mortality": "A (100)"}
{"compound": "CC(C)NC(=O)c1c(I)cccc1C(=O)Nc1ccc(C(F)(C(F)(F)F)C(F)(F)F)cc1-c1ccccc1", "note": "[compound 1767]", "Insecticidal effect (Test Example 1), judged from mortality": "A (100)"}
{"compound": "CCCNC(=O)c1cccc(I)c1C(=O)Nc1ccc(OC(F)F)cc1C", "note": "[compound 1451]", "Insecticidal effect (Test Example 1), judged from mortality": "A (100)"}
{"tested_on": "diamondback moth (Plutella xylostella)", "assay": "Insecticidal effect on diamondback moth (Test Example 1)", "type": "in vivo", "details": "diamondback moth; judged by the mortality criterion of Test Example 1", "procedure": "as §1"}
{"compound": "CC(C)NC(=O)c1ccccc1C(=O)Nc1cc(Cl)c(OC(F)F)c(Cl)c1", "note": "[compound 84]", "Insecticidal effect, Test Example 1": "A (100)"}
{"compound": "CCNC(=O)c1ccccc1C(=O)Nc1ccc(C(F)(F)F)cc1", "note": "[compound 7]", "Insecticidal effect, Test Example 1": "A (100)"}
{"compound": "CC(C)NC(=O)c1cccc(Cl)c1C(=O)Nc1ccc(SC(F)(F)C(F)F)cc1", "note": "[compound 203]", "Insecticidal effect, Test Example 1": "A (100)"}
{"compound": "CC(C)NC(=O)c1ccccc1C(=O)Nc1cccc(SC(F)(F)F)c1", "note": "[compound 31]", "Insecticidal effect, Test Example 1": "A (100)"}
{"compound": "CC(C)NC(=O)c1c(Cl)cccc1C(=O)Nc1ccc(C(C)(C)C)cc1", "note": "[compound 88]", "Insecticidal effect, Test Example 1": "A (100)"}
{"compound": "CC(C)NC(=O)c1c(Cl)cccc1C(=O)Nc1cc(Cl)c(OC(F)F)c(Cl)c1", "note": "[compound 151]", "Insecticidal effect, Test Example 1": "A (100)"}
{"compound": "CC(C)NC(=O)c1c(Cl)cccc1C(=O)Nc1ccc(SCC(F)(F)F)cc1", "note": "[compound 101]", "Insecticidal effect, Test Example 1": "A (100)"}
{"compound": "CC(C)NC(=O)c1cc(Cl)ccc1C(=O)Nc1ccc(F)c(F)c1", "note": "[compound 174]", "Insecticidal effect, Test Example 1": "A (100)"}
{"compound": "CC(C)NC(=O)c1cccc(Cl)c1C(=O)Nc1ccc(SCC(F)(F)F)cc1", "note": "[compound 202]", "Insecticidal effect, Test Example 1": "A (100)"}
{"compound": "Cc1c(NC(=O)c2cccc(Br)c2C(=O)NC(C)C)ccc(OC(F)F)c1C", "note": "[compound 295]", "Insecticidal effect, Test Example 1": "D (79-50)"}
{"compound": "CC(C)NC(=O)c1ccccc1C(=O)Nc1ccc(SCC(F)(F)F)cc1", "note": "[compound 33]", "Insecticidal effect, Test Example 1": "A (100)"}
{"compound": "CC(C)NC(=O)c1cc(Cl)ccc1C(=O)Nc1ccccc1", "note": "[compound 168]", "Insecticidal effect, Test Example 1": "A (100)"}
{"tested_on": "diamondback moth (Plutella xylostella)", "assay": "Insecticidal effect on diamondback moth (Test Example 1)", "type": "in vivo", "details": "diamondback moth; mortality judged by criterion of Test Example 1", "procedure": "as §1"}
{"compound": "CC(C)(C)NC(=O)c1ccccc1C(=O)Nc1ccc2c(c1)OC(F)(F)C(F)(F)O2", "note": "[compound 1065]", "Insecticidal effect, Test Example 1": "A (100)"}
{"compound": "Cc1cc(C(F)(F)C(F)(F)F)ccc1NC(=O)c1cccc(Cl)c1C(=O)NCCOc1ccccc1", "note": "[compound 1374]", "Insecticidal effect, Test Example 1": "A (100)"}
{"compound": "Cc1cc(C(F)(F)C(F)(F)F)ccc1NC(=O)c1c(Cl)cccc1C(=O)NCc1ccncc1", "note": "[compound 1395]", "Insecticidal effect, Test Example 1": "A (100)"}
{"compound": "CCN(CC)C(=O)c1cccc([N+](=O)[O-])c1C(=O)Nc1ccc(OC(F)(F)F)cc1", "note": "[compound 1139]", "Insecticidal effect, Test Example 1": "A (100)"}
{"compound": "Cc1cc(C(F)(F)C(F)(F)F)ccc1NC(=O)c1cccc(Cl)c1C(=O)NCc1ccc(Cl)cc1Cl", "note": "[compound 1349]", "Insecticidal effect, Test Example 1": "A (100)"}
{"compound": "CCN(CC)C(=O)c1c(I)cccc1C(=O)Nc1ccc2oc(-c3ccc(C(F)(F)F)cc3)nc2c1", "note": "[compound 1175]", "Insecticidal effect, Test Example 1": "A (100)"}
{"compound": "CCN(CC)C(=O)c1c(I)cccc1C(=O)Nc1ccc2nc(C(F)(F)C(F)(F)F)oc2c1", "note": "[compound 1182]", "Insecticidal effect, Test Example 1": "A (100)"}
{"compound": "CCN(CC)C(=O)c1c(OC(F)(F)F)cccc1C(=O)Nc1ccc(C(F)(C(F)(F)F)C(F)(F)F)cc1C", "note": "[compound 1238]", "Insecticidal effect, Test Example 1": "A (100)"}
{"compound": "Cc1cc(C(F)(F)C(F)(F)F)ccc1NC(=O)c1c(I)cccc1C(=O)NCc1ccccc1", "note": "[compound 1401]", "Insecticidal effect, Test Example 1": "A (100)"}
{"compound": "Cc1cc(OC(=C(C(F)(F)F)C(F)(F)F)C(F)(F)C(F)(F)F)ccc1NC(=O)c1cccc(Cl)c1C(=O)NC(C)C", "note": "[compound 1291]", "Insecticidal effect, Test Example 1": "A (100)"}
{"compound": "Cc1cc(C(F)(F)C(F)(F)F)ccc1NC(=O)c1cccc(Cl)c1C(=O)NCCOc1ccc(Cl)cc1", "note": "[compound 1372]", "Insecticidal effect, Test Example 1": "A (100)"}
{"compound": "CCCONC(=O)c1c(Cl)cccc1C(=O)Nc1ccc(C(F)(F)C(F)(F)F)cc1C", "note": "[compound 1327]", "Insecticidal effect, Test Example 1": "A (100)"}
{"compound": "COc1cccc(CNC(=O)c2cccc(Cl)c2C(=O)Nc2ccc(C(F)(F)C(F)(F)F)cc2C)c1", "note": "[compound 1346]", "Insecticidal effect, Test Example 1": "A (100)"}
{"tested_on": "diamondback moth (Plutella xylostella)", "assay": "Insecticidal effect on diamondback moth (Test Example 1)", "type": "in vivo", "details": "mortality judged according to the criterion shown in Test Example 1", "procedure": "as §1"}
{"compound": "Cc1ccc([N+](=O)[O-])cc1NC(=O)c1cccc([N+](=O)[O-])c1C(=O)NC(C)C", "note": "[compound 708]", "Insecticidal effect on diamondback moth (Test Example 1), judged grade": "D (79-50)"}
{"compound": "Cc1cc(OC(F)F)ccc1NC(=O)c1cccc([N+](=O)[O-])c1C(=O)NCC(C)C", "note": "[compound 832]", "Insecticidal effect on diamondback moth (Test Example 1), judged grade": "A (100)"}
{"compound": "CCc1cccc(CC)c1NC(=O)c1cccc([N+](=O)[O-])c1C(=O)NC(C)C", "note": "[compound 653]", "Insecticidal effect on diamondback moth (Test Example 1), judged grade": "A (100)"}
{"compound": "COC(=O)c1cccc(C(=O)NC(C)C)c1C(=O)Nc1ccc(Cl)cc1C", "note": "[compound 802]", "Insecticidal effect on diamondback moth (Test Example 1), judged grade": "D (79-50)"}
{"compound": "Cc1cc(Cl)ccc1NC(=O)c1cccc([S+]([O-])C(C)C)c1C(=O)NC(C)C", "note": "(stereo not shown) [compound 793]", "Insecticidal effect on diamondback moth (Test Example 1), judged grade": "A (100)"}
{"compound": "Cc1cc(NC(=O)c2cccc([N+](=O)[O-])c2C(=O)NC(C)C)c(F)cc1Cl", "note": "[compound 657]", "Insecticidal effect on diamondback moth (Test Example 1), judged grade": "D (79-50)"}
{"compound": "C=CCNC(=O)c1ccccc1C(=O)Nc1ccc(C(F)(F)F)cc1", "note": "[compound 865]", "Insecticidal effect on diamondback moth (Test Example 1), judged grade": "A (100)"}
{"compound": "Cc1ccc(Cl)cc1NC(=O)c1cccc([N+](=O)[O-])c1C(=O)NC1CCCCC1", "note": "[compound 859]", "Insecticidal effect on diamondback moth (Test Example 1), judged grade": "D (79-50)"}
{"compound": "CCc1ccc(Cl)c(CC)c1NC(=O)c1cccc(Cl)c1C(=O)NC(C)C", "note": "[compound 924]", "Insecticidal effect on diamondback moth (Test Example 1), judged grade": "A (100)"}
{"compound": "CC(C)NC(=O)c1cccc(I)c1C(=O)Nc1cc(Cl)c(OC(F)F)c(Cl)c1", "note": "[compound 449]", "Insecticidal effect on diamondback moth (Test Example 1), judged grade": "A (100)"}
{"compound": "Cc1cc(Cl)ccc1N(C)C(=O)c1ccccc1C(=O)NC(C)C", "note": "[compound 827]", "Insecticidal effect on diamondback moth (Test Example 1), judged grade": "A (100)"}
{"compound": "Cc1cc(Cl)ccc1NC(=O)c1c(C#N)cccc1C(=O)NC(C)C", "note": "[compound 745]", "Insecticidal effect on diamondback moth (Test Example 1), judged grade": "D (79-50)"}
{"compound": "Cc1ccc(F)cc1NC(=O)c1cccc([N+](=O)[O-])c1C(=O)NCC1CC1", "note": "[compound 860]", "Insecticidal effect on diamondback moth (Test Example 1), judged grade": "A (100)"}
{"compound": "CC(C)NC(=O)c1cccc(F)c1C(=O)Nc1ccc(SCC(F)(F)F)cc1", "note": "[compound 539]", "Insecticidal effect on diamondback moth (Test Example 1), judged grade": "A (100)"}
{"compound": "CC(C)NC(=O)c1c(C(=O)Nc2ccc(C#N)cc2)cccc1[N+](=O)[O-]", "note": "[compound 598]", "Insecticidal effect on diamondback moth (Test Example 1), judged grade": "A (100)"}
{"compound": "Cc1ccc(F)cc1NC(=O)c1cccc([N+](=O)[O-])c1C(=O)NCCCl", "note": "[compound 861]", "Insecticidal effect on diamondback moth (Test Example 1), judged grade": "A (100)"}
{"compound": "Cc1cc(C)c(NC(=O)c2cccc([N+](=O)[O-])c2C(=O)NC(C)C)c(C)c1", "note": "[compound 652]", "Insecticidal effect on diamondback moth (Test Example 1), judged grade": "A (100)"}
{"compound": "CC(C)NC(=O)c1cccc(Cl)c1C(=O)Nc1ccc(C=C(Cl)C(F)(F)F)cc1", "note": "[compound 912]", "Insecticidal effect on diamondback moth (Test Example 1), judged grade": "A (100)"}
{"compound": "Cc1ccc(Cl)cc1NC(=O)c1ccccc1C(=O)NCC(F)(F)F", "note": "[compound 864]", "Insecticidal effect on diamondback moth (Test Example 1), judged grade": "A (100)"}
{"compound": "Cc1cc(Br)ccc1NC(=O)c1cccc([N+](=O)[O-])c1C(=O)NCc1cccnc1", "note": "[compound 888]", "Insecticidal effect on diamondback moth (Test Example 1), judged grade": "D (79-50)"}
{"compound": "Cc1cc(OC(F)F)ccc1NC(=O)c1c(F)cccc1C(=O)NC(C)C", "note": "[compound 559]", "Insecticidal effect on diamondback moth (Test Example 1), judged grade": "A (100)"}
{"compound": "CC(C)NC(=O)c1c(C(=O)Nc2ccc(OC(F)F)c(Cl)c2)cccc1[N+](=O)[O-]", "note": "[compound 658]", "Insecticidal effect on diamondback moth (Test Example 1), judged grade": "A (100)"}
{"compound": "Cc1cc(SC(C)C)ccc1NC(=O)c1cccc([N+](=O)[O-])c1C(=O)NC(C)C", "note": "[compound 721]", "Insecticidal effect on diamondback moth (Test Example 1), judged grade": "A (100)"}
{"compound": "CC(C)NC(=O)c1cccc(F)c1C(=O)Nc1ccc(SC(F)(F)C(F)F)cc1", "note": "[compound 540]", "Insecticidal effect on diamondback moth (Test Example 1), judged grade": "A (100)"}
{"compound": "Cc1ccc(Cl)cc1NC(=O)c1c(C(=O)NC(C)C)cccc1C(F)(F)F", "note": "[compound 766]", "Insecticidal effect on diamondback moth (Test Example 1), judged grade": "A (100)"}
{"compound": "Cc1cc(OC(F)(F)C(F)C(F)(F)F)ccc1NC(=O)c1c(C(=O)NC(C)C)cccc1[N+](=O)[O-]", "note": "(stereo not shown) [compound 743]", "Insecticidal effect on diamondback moth (Test Example 1), judged grade": "D (79-50)"}
{"compound": "CC(C)NC(=O)c1c(C(=O)Nc2cc(Cl)c(OC(F)F)c(Cl)c2)cccc1[N+](=O)[O-]", "note": "[compound 659]", "Insecticidal effect on diamondback moth (Test Example 1), judged grade": "A (100)"}
{"compound": "CC(C)NC(=O)c1c(C(=O)Nc2ccc(SC(F)(F)C(F)F)cc2)cccc1[N+](=O)[O-]", "note": "[compound 626]", "Insecticidal effect on diamondback moth (Test Example 1), judged grade": "A (100)"}
{"compound": "CC(C)NC(=O)c1c(C(=O)Nc2cc(Cl)cc(Cl)c2)cccc1[N+](=O)[O-]", "note": "[compound 637]", "Insecticidal effect on diamondback moth (Test Example 1), judged grade": "A (100)"}
